Legend:
[1] = tested on: E. coli K12 PBP1a/b; experiment: Bocillin FL competition binding assay, PBP1a/1b combined; parameters: species or system Escherichia coli K12; conditions: 15 min pre-incubation, PBP 1a/1b combined
How it was run: (§1)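 E. coli K12 membrane extracts (100 µg protein) pre-incubated 15 min with compound (0.005–2,480 µg/mL) in pH 7 phosphate/350 mM NaCl, then labelled with Bocillin FL 30 min at 35°C; SDS-PAGE fluorescence (ex 450/em 520 nm), μg/mL reported. PBP1a/1b unresolved, reported combined.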

[2] = target: T1, E. coli PBP2 (Escherichia coli, UniProt P0AD65); experiment: Bocillin FL competition binding assay, PBP2; parameters: species or system Escherichia coli K12; conditions: 15 min pre-incubation
T1 construct: 100 μg's of total membrane protein extracts containing PBPs; endogenous in cells; host or cells: Escherichia coli K12, membrane protein fraction
How it was run: as §1

[3] = tested on: E. coli DH5a harboring CTX-M15; experiment: Broth microdilution MIC, engineered E. coli expressing CTX-M15; format: cell-based; conditions: Escherichia coli, read-out: MIC, β-lactamase CTXM
Experimental: (§2) To determine the ability of test compounds to potentiate the inhibition of the growth of bacterial strains, classic cell based broth microdilution MIC assays were employed. MIC assays are performed according to CLSI methods except where otherwise noted (CLSI, 2011 and CLSI, 2009). The reference strain S. aureus ATCC 29213 and the hyper-permeable E. coli 901C were used to determine the ability of the PBP compounds to inhibit bacterial growth. Briefly, cryo-preserved bacterial cultures of clinical strains are streaked for isolation on appropriate agar medium, in this case Mueller Hinton II agar. Following incubation to allow formation of colonies these plates are sealed with parafilm and stored refrigerated for up to two weeks. For preparation of assay inocula and to ensure low variability, at least 5 colonies are picked from the agar plates with an inoculating loop and aseptically transferred to a culture tube containing 3 mL of Mueller-Hinton Broth (supplemented with divalent cations to required levels based on Manufacturers' certification). The broth culture is grown for 3-5 hours at 37° C. with shaking at 200 rpm. Meanwhile, 2-fold serial dilutions of test compounds are conducted in a 96 well plate with a final volume of 75 μL per well at 2-fold the final desired concentration. After the dilution plates are set up the growing cultures are then diluted in a cuvette containing MH II broth and the optical density is measured at 600 nm. Inocula are diluted such that 75 μL of this culture in Mueller-Hinton Broth results in a starting bacterial concentration of 5×10^5 CFU/mL when added to the dilution plates. The plates are incubated 16-20 hours at 37° C. The MIC is read visually as the lowest concentration well with no bacterial growth.
(§3) To determine if test compounds were affected by various known β-lactamases, the inhibition of the growth of engineered strains of Escherichia coli harboring select single β-lactamases were tested. […]

[4] = tested on: E. coli DH5a harboring OXA-48; experiment: Broth microdilution MIC, engineered E. coli expressing OXA-48; format: cell-based; conditions: Escherichia coli, read-out: MIC, β-lactamase OXA
Experimental: as §2, §3

[5] = target: T2, E. coli K12 PBP1b (Escherichia coli, UniProt P02919); experiment: Competition binding assay using Bodipy-FL boronic acid probe (Example 125); conditions: Bodipy-FL boronic acid probe (Example 125) 30 μM, 10 minutes pre-incubation, 10 minutes reaction
T2 construct: endogenous in cells; host or cells: Escherichia coli K12, membrane protein fraction
Experimental: Penicillin binding proteins were isolated from Escherichia coli K12 by growth of Escherichia coli K12 from a single colony in 4 L of Luria-Bertani (LB) broth at 35° C. and 250 rpm to an OD600 nm of 0.5. The cells were harvested by centrifugation at 7,000×g for 10 min. at 4° C. Cells were resuspended and washed in 50 mM potassium phosphate pH 7.5. The cells were re-suspended in sonication buffer [50 mM Tris-HCl pH 7.5, 1 mM MgCl2, 1 mM beta-mercaptoethanol, and 5 μg/mL DNAse I] and sonicated by 4 passes of 30 seconds at 45 W on ice. The sample was clarified by centrifugation at 3,000×g to remove cell debris and unbroken cells and supernatant containing the membrane proteins was retained. The membrane proteins including the PBPs were further purified from soluble constituents by an ultracentrifugation step at 100,000×g for 30 min. at 4° C. The membrane proteins are washed twice with 10 mM sodium phosphate pH 7, resuspended in a volume of 5 mL, quantitated by BCA assay, adjusted to […] and frozen at −80° C. until use.
The adapted Bocillin FL competition binding method described herein incorporates a 15 min. pre-incubation of test compound with isolated PBPs to attempt to balance the difference in mechanism of inhibition between beta-lactams (largely irreversible covalent bond to active site Serine) and the boron-containing PBP inhibitor test compounds (reversible covalent bond to active site Serine). Briefly, 50 μL reactions consisted of 100 μg's of total membrane protein extracts containing PBPs incubated with a dilution series of test compound ranging from 0.005 μg/mL to 2,480 μg/mL in 10 mM sodium phosphate pH7 containing 350 mM NaCl. Thirty minute reactions at 35° C. were initiated by addition of […] Bocillin FL, quenched by addition of SDS-PAGE loading buffer containing sodium dodecyl sulfate (SDS) and heated for 15 minutes at 95° C. to denature proteins in preparation for SDS-polyacrylamide gel electrophoresis. The Bocillin FL labeled PBPs are then separated by SDS-PAGE in Novex NuPage 10% Bis-Tris pre-cast gels (Invitrogen). The SDS-PAGE gel, post-electrophoresis, is then washed in water to remove excess SDS for 10 minutes at room temperature and placed on the scanning bed of a GE Healthcare/Amersham Biosciences Storm 860 fluorescence scanner. The excitation wavelength is in the blue spectrum at 450 nm and the emission at 520 nm is captured by the instrument. Effective PBP inhibitors are detected by a reduction in Bocillin FL labeling of the particular PBP over the dose range of test compound in a dose-responsive manner. High molecular weight PBP 1a/1b are not resolved by these gels, thus we report HMW PBP binding results in μg/mL for PBPs 1a/1b combined as well as for PBP2 and PBP3.
To determine the ability of boronic acid-based test PBP inhibitors to bind Penicillin Binding Proteins (PBPs), a competition binding assay using a Bodipy-FL-labeled boronic acid PBP inhibitor (Example 125) was adapted from the classical method used to assess PBP potency of beta-lactams using Bocillin-FL (fluorescently-labeled penicillin V). The method is identical to that described in Example I for the Bocillin-FL competition binding assay with the following exceptions, the Bodipy-FL boronic acid probe (Example 125) is used at a final concentration of 30 μM, pre-incubation time of test compound with PBP enzymes is 10 minutes and reaction time is set for 10 minutes and reactions are prepared for SDS-PAGE analysis by simply adding SDS-containing loading buffer. Representative results are shown in Table 5, where A represents a potency of >1000 μg/mL, B represents a potency between 64 and 1000 μg/mL inclusive, and C represents a potency of <64 μg/mL. NT=Not Tested.

T2 sequence (P02919 whole entry): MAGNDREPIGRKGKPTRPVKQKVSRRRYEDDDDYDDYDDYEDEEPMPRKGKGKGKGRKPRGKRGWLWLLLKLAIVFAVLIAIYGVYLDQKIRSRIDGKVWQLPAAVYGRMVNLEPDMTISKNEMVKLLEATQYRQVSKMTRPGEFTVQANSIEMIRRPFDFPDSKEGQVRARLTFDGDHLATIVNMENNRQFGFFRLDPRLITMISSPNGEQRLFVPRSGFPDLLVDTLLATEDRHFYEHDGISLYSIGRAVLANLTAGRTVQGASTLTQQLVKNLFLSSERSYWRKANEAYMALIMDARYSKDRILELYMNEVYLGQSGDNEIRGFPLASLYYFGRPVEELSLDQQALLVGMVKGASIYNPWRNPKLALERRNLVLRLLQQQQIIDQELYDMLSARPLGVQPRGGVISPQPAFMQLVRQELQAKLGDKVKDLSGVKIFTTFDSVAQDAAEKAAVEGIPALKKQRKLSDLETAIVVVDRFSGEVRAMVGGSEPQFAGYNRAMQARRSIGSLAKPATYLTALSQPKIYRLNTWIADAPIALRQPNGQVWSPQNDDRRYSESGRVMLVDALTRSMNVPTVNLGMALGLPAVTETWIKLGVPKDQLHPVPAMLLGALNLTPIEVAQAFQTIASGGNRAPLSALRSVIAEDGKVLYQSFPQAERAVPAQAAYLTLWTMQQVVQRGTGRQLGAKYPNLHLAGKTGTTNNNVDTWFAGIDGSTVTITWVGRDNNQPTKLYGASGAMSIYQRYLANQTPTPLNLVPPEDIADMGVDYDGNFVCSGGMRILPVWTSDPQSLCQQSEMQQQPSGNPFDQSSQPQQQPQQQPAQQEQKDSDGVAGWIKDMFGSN
T1 sequence (P0AD65 whole entry): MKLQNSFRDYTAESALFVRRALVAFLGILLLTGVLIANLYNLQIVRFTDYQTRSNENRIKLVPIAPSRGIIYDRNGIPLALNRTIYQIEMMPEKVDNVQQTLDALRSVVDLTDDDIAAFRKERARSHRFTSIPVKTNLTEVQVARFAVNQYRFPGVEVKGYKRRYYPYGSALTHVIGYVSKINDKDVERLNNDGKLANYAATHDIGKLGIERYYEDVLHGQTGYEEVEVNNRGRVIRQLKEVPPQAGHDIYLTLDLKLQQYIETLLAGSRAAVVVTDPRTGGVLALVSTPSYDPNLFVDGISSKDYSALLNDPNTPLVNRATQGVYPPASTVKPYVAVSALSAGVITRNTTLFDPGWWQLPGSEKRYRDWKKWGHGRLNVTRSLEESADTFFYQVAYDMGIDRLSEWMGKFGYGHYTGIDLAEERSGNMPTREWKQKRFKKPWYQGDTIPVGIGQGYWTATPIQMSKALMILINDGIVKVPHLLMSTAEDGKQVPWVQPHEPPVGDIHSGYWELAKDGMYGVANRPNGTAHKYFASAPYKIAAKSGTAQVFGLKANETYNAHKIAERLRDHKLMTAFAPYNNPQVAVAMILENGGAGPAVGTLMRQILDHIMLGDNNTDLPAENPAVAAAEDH

Nc1nc(/C(=N/O)C(=O)N[C@H]2Cc3cccc(C(=O)O)c3OB2O)cs1 [Example 6, (R,Z)-3-(2-(2-aminothiazol-4-yl)-2-(hydroxyimino)acetamido)-2-hydroxy-3,4-dihydro-2H-benzo[e][1,2]oxaborinine-8-carboxylic Acid]
E. coli K12 PBP1a/b Potency [1]: C (C represents a potency of <64 μg/mL)
E. coli PBP2 Potency [2]: B (B represents a potency between 64 and 1000 μg/mL inclusive)
MIC [3]: 16 µg/mL
MIC [4]: 16 µg/mL
E. coli K12 PBP1b Potency [5]: C (C represents a potency of <64 μg/mL)

Source: patent US11267826B2, “Penicillin-binding protein inhibitors” (priority 2017, dated 2022)
